Data taken from patent US11337982B2, “Combined treatment with a TLR7 agonist and an HBV capsid assembly inhibitor” (Hoffmann-La Roche Inc., priority 2016, dated 2022).
Each block holds one compound with its values, some of them ahead of it.

Tests used:
human TLR7 = molecular target: T1, human TLR7 (Homo sapiens, UniProt Q9NYK1); test: HEK293-Blue-hTLR-7 cells assay (SEAP reporter); assay type: cell-based; conditions: active moiety; read-out: potency to active TLR7 in HEK293-hTLR7 assay
T1 sequence (Q9NYK1 27-1049): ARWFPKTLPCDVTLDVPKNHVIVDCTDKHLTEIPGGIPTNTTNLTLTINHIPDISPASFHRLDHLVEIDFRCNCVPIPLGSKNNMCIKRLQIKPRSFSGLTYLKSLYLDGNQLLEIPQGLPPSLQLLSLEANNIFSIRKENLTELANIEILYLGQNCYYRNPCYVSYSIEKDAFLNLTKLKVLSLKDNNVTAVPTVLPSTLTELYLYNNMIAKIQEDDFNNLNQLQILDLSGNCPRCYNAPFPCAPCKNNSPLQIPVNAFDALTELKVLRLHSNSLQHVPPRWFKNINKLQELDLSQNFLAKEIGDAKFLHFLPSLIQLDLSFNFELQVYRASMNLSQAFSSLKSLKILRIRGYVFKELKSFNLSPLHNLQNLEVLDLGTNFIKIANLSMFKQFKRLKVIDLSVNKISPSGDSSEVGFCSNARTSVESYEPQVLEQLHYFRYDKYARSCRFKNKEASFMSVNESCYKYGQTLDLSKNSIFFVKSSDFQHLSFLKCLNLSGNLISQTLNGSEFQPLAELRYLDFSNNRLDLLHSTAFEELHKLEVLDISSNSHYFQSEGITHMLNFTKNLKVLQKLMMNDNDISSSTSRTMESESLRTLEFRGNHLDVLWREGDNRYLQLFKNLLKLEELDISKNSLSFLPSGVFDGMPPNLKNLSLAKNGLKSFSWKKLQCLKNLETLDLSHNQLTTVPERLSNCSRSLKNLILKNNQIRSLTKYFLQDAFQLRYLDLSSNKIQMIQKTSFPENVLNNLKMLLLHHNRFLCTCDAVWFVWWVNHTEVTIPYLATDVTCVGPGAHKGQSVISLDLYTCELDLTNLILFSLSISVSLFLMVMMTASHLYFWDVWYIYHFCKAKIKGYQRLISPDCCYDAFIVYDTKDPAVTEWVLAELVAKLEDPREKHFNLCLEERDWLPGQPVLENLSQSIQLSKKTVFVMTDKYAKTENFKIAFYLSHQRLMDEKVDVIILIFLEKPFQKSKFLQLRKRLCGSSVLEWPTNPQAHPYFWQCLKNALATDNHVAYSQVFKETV
Source text: HEK293-Blue-hTLR-7 Cells Assay:
A stable HEK293-Blue-hTLR-7 cell line was purchased from InvivoGen (Cat.#: hkb-htlr7, San Diego, Calif., USA). These cells were designed for studying the stimulation of human TLR7 by monitoring the activation of NF-κB. A reporter gene of secreted embryonic alkaline phosphatase (SEAP) was placed under the control of the IFN-β[…]minimal promoter fused to five NF-κB and AP-1-binding sites. SEAP was induced by the activation of NF-κB and AP-1 upon stimulating HEK-Blue hTLR7 cells with TLR7 ligands. SEAP activity in cell culture supernatant was determined using QUANTI-Blue™ kit (Cat.#: rep-qb1, Invivogen, San Diego, Calif., USA) at a wavelength of 640 nm. Such reporter assays have been widely used for evaluation of TLR7 agonism (Tsuneyasu Kaisho and Takashi Tanaka, Trends in Immunology, Volume 29, Issue 7, July 2008, […]; Hiroaki Hemmi et al, Nature Immunology 3, 196-200 (2002).
Specifically, HEK293-Blue-hTLR7 cells were incubated at a density of 250,000˜450,000 cells/mL in a volume of 180 μL in a 96-well plate in Dulbecco's Modified Eagle's medium (DMEM) containing 4.5 g/L glucose, 50 U/mL penicillin, […], […], 2 mM L-glutamine, 10% (v/v) heat-inactivated fetal bovine serum for 24 h. The cells were then incubated with 20 μL of test compound in a serial dilution at 37° C. in a CO2 incubator for 20 hours. Then 20 μL of the supernatant from each well was incubated with 180 μL Quanti-blue substrate solution at 37° C. for 2 hours and the absorbance was measured at 620˜655 nm using a spectrophotometer.

HBV = HBV infected transgenic mouse or humanized mouse models; cited from earlier work
[1] = Conversion of prodrug into active moiety
AAV-HBV = AAV-HBV mouse model, serum HBV biomarkers; assay type: in vivo; conditions: Compound 5 20 mg/kg QD, p.o., after 42 days of treatment
Source text: 4-week old male C57BL/6 mice, specific pathogen free, were purchased from Shanghai Laboratory Animal Center of Chinese Academy of Sciences (SLAC) and housed in an animal care facility in individually ventilated cages under controlled temperature and light conditions following the Institutional Animal Care guidelines. AAV-HBV virus was purchased from Beijing FivePlus Molecular Medicine Institute (Beijing, China). This recombinant virus carries 1.3 copies of the HBV genome, which was packaged in AAV serotype 8 (AAV8) capsids. C57BL/6 mice were injected with 200 μL of recombinant virus, diluted in saline buffer, through tail vein injection. After 3-4 weeks, animals were bled to monitor HBV genomic DNA and surface antigen (HBsAg) in serum, and then were randomly grouped according to these HBV biomarkers.
Serum HBsAg was measured using CLIA kits (Autobio Diagnostics Co., Ltd, Zhengzhou, China) according to the manufacturer's instructions. The lower limit of detection (LLOQ) for HBsAg was 0.05 IU/mL. 500-fold dilution of serum was used to obtain values within the linear range of standard curves. Serum HBV DNA was extracted using a MagNA Pure 96 DNA and Viral NA Small Volume Kit (Roche) following the manufacturer's instructions. The DNA samples were analyzed by real-time quantitative PCR (qPCR) using a HBV-specific primer and probe set for specific amplification and detection of a 128 bp HBV genome region from the nucleotide 2969 to 3096. The sequences of the primers and probe are shown as follows: […]
Anti-HBs antibody was examined in mouse serum using the anti-HBs CLIA kit (Antobio, Zhengzhou, China) according to the manufacturer's instruction with modification. ˜15 μL of the diluted (1:3) mouse serum samples were thawed at room temperature for 10 mins. 6 μL of sample was further diluted in 30 μL of PBS to make the final dilution 1:18 for the antibody test. Standard curve were prepared with monoclonal mouse antibody Anti-Hepatitis B Virus Surface Antigen (Ad/Ay) antibody [S35] (Abcam ab20402) in diluted Naive mouse serum (1:18 dilution in PBS). 1 μL of 1 mg/ml anti-HBs antibody was added into 500 μL of diluted mouse serum to make standard 1 as final concentration 2000 ng/ml. 50 μL of standard 1 then was added into 150 μL of diluted mouse serum to make standard 2 (1:4 dilution). 7 points standards were required for the test. The final concentration of standard 7 was (0.488 ng/ml). Blank serum was used as background control. 25 μL of diluted serum sample/standards/Blank was transferred into 96-well plate. Samples were incubated at room temperature for 1 hour followed by 3 times washing with 300 μL of PBST. 0.5 mg/ml of Goat anti-mouse IgG Biotinylated (Mabtech 3825-6-250) was diluted into PBS to final concentration 1 μg/ml (1:500 dilution). […] anti-mouse IgG Bio was added into plate, incubated at room temperature for 1 hour followed by 3 times washing with 300 μL of PBST. Streptavidin-HRP (Mabtech 3310-9) was diluted into PBS (1:250). 50 μL of diluted Streptavidin-HRP was incubated at room temperature for 1 hour followed by 3 times washing with 300 μL of PBST. Substrate A and substrate B (AntuBio) were mixed. 50 μL of mixture were added into plated and incubated for 10 mins before subjected to luminescence reading with Envision microplate reader. The lower limit of detection for anti HBsAb was 36 ng/mL. The anti HBsAb results were calculated from Luminescence raw data fitting on the anti HBsAb standard curve by SoftMax Pro (v5.4.1) software.
In Group 01, animals were treated with Vehicle every other day (QOD) for 42 days and served as the placebo control. In Group 02, Compound 4 was dosed once weekly (QW) at 10 mg/kg for 42 days. Compound 5 was dosed once daily (QD) at 20 mg/kg for 42 days alone in Group 03, or in combination with 10 mg/kg of Compound 4 QW in Group 04. All the test articles were administered by oral gavage (PO) with a total dose volume of 10 mL/kg. The 42-day treatment was followed by a 42-day off-treatment period. […]

[2] = Example 6, Compound 3 1 mg/kg QOW
[3] = Example 5, Compound 4 10 mg/kg QW

SMILES: COC(=O)C1=C(C)NC(c2ncc(F)cc2F)=N[C@H]1c1ccc(F)cc1Cl [Bay 41-4109]
in vivo efficacy, HBV DNA (HBV): in vivo efficacy with HBV DNA reduction

SMILES: CCN(C)C(=O)n1c(=O)n(Cc2ccc(Cl)cc2)c2nc([S@@](=N)(=O)CC)nc(N)c21 [Compound 3, 6-Amino-9-[(4-chlorophenyl)methyl]-N-ethyl-2-[S(S)-(ethylsulfonimidoyl)]-N-methyl-8-oxo-purine-7-carboxamide]
conversion of prodrug into the active moiety [1]: efficiently converted
HBV DNA reduction (AAV-HBV; [2]): significant reduction
HBsAg reduction (AAV-HBV; [2]): significant reduction

SMILES: CCCN(C)C(=O)n1c(=O)n(Cc2ccc(C)cc2)c2nc([S@](=N)(=O)CC)nc(N)c21 [Compound 4, 6-Amino-2-[S(R)-(ethylsulfonimidoyl)]-N-methyl-8-oxo-N-propyl-9-(p-tolylmethyl)purine-7-carboxamide]
conversion of prodrug into the active moiety [1]: efficiently converted
HBV DNA reduction (AAV-HBV; [3]): significant reduction
HBsAg reduction (AAV-HBV; [3]): significant reduction

SMILES: CCOC(=O)C1=C(CN2CCN3C(=O)N(CC(C)(C)C(=O)O)C[C@@H]3C2)NC(c2nccs2)=N[C@H]1c1cccc(F)c1C [Compound 5, 3-[(8aS)-7-[[(4S)-5-ethoxycarbonyl-4-(3-fluoro-2-methyl-phenyl)-2-thiazol-2-yl-1,4-dihydropyrimidin-6-yl]methyl]-3-oxo-5,6,8,8a-tetrahydro-1H-imidazo[1,5-a]pyrazin-2-yl]-2,2-dimethyl-propanoic acid]
HBV DNA reduction (AAV-HBV; [3]): significant reduction
HBsAg reduction (AAV-HBV; [3]): significant reduction
HBV DNA reduction (AAV-HBV; [2]): significant reduction
HBsAg reduction (AAV-HBV; [2]): significant reduction

More lines, now with the values ahead:

EC50 (human TLR7): 71 nM
SMILES: CC[S@](=N)(=O)c1nc(N)c2[nH]c(=O)n(Cc3ccc(Cl)cc3)c2n1 (single isomer, unassigned) [Compound 1e-A]

conversion of prodrug into the active moiety [1]: efficiently converted
SMILES: CCCN(C)C(=O)n1c(=O)n(Cc2ccc(Cl)cc2)c2nc([S@@](=N)(=O)CC)nc(N)c21 [Compound 1, 6-Amino-9-[(4-chlorophenyl)methyl]-2-[S(S)-ethylsulfonimidoyl]-N-methyl-8-oxo-N-propyl-purine-7-carboxamide]

EC50 (human TLR7): 85 nM
SMILES: CC[S@@](=N)(=O)c1nc(N)c2[nH]c(=O)n(Cc3ccc(Cl)cc3)c2n1 [Compound 1e-B]

conversion of prodrug into the active moiety [1]: efficiently converted
SMILES: CCCN(C)C(=O)n1c(=O)n(Cc2ccc(Cl)cc2)c2nc([S@](=N)(=O)CC)nc(N)c21 [Compound 2, 6-amino-9-[(4-chlorophenyl)methyl]-2-[S(R)-ethylsulfonimidoyl]-N-methyl-8-oxo-N-propyl-purine-7-carboxamide]

EC50 (human TLR7): 110 nM
SMILES: CC[S@@](=N)(=O)c1nc(N)c2[nH]c(=O)n(Cc3ccc(C)cc3)c2n1 [Compound 4f-A, 6-amino-2-(S(R)-ethylsulfonimidoyl)-9-(p-tolylmethyl)-7H-purin-8-one]
